Tested on: acetic acid sensitized rats
Assay: Behavioral response to graded colorectal distention (CRD) in neonatally acetic acid sensitized rats
Type: in vivo, Sprague Dawley rat
Details: oral, 1.5 mg/kg body weight in corn oil daily for two weeks; graded CRD 10 mm-80 mm Hg; behavioral response grading 0-3
Protocol: Neonatal sensitization with acetic acid: Description of the model. It was previously shown that transient noxious stimulation of the colon during postnatal development can cause long-lasting hyperalgesia, despite complete resolution of the initiating event. In a variation of this technique, 0.3% acetic acid was instilled into the rectum of rats at postnatal days 7-10. […] By contrast, when rats are treated with acetic acid as adults, and tested after a similar period of time, no sensitization is observed. Sprague Dawley rat pups were sensitized on neonatal day 10 with acetic acid. In brief, a thin polyethylene tubing (P-90 was introduced gently into the rectum 2 cm from the anus. 0.2 ml of 0.5% glacial acetic acid in normal saline was injected through the tube into the colo rectum. The pups were allowed to grow into adults. When the rats were approximately eight weeks old they were weighed and their behavioral responses to graded (10 mm-80 mm Hg) colo rectal distention (CRD) was determined. Under light brevital (1%) anesthesia a polyethelene tube connected to a balloon (made out of a glove finger) was guided into the colo-rectum ˜8 cms from the rectum and the tube was fastened to the tail. The open end was connected to the barostat device. The rat was put into a rat restrainer allowing limited movement. […]

In the case of `CCC(=O)OCC(=O)[C@@]1(OC(=O)CC)[C@@H](C)C[C@H]2[C@@H]3CCC4=CC(=O)C=C[C@]4(C)[C@@]3(Cl)[C@@H](O)C[C@@]21C` [beclamethasone dipropionate], the “pain threshold to graded CRD compared to the vehicle treated group” value is reported as “higher pain threshold”.
